Experimental data from patent US9784747B2, “Method and kit for analyzing protein-protein interaction using nanocluster formation” (KOREA ADVANCED INSTITUTE OF SCIENCE AND TECHNOLOGY, priority 2011, dated 2017).

Tested on: interaction between CaMKIIα and calmodulin
Assay: Real-time observation of calcium-dependent nanocluster formation (CaMKIIα-CaM interaction) in cotransfected HeLa cells
Type: cell-based
Conditions: ionomycin 1 mM; 80 seconds after treatment; HeLa cells cotransfected with mCherry-CaMKII[296-315]-AD and CaM-ECFP-FT; fluorescence distributed again as time passes
Description: To investigate whether the system of the present disclosure can be used for real-time observation of an intermolecular interaction regulated by calcium through a calcium dependent nanocluster formation, the present inventors cotransfected HeLa cells with the mCherry-CaMKII[296-315]-AD construct constructed in example 1-18 and the CaM-ECFP-FT construct constructed in example 1-19 through the method described above. Thereafter, the cells were treated with 1 mM of ionomycin as ionophore which facilitates calcium ion penetration.
Then, fluorescence was distributed again as time passes.

C[C@H](CCC(=O)O)C[C@H](C)C[C@H](C)C(=O)/C=C(\O)[C@H](C)C[C@H](C)C/C=C/[C@@H](C)[C@@H](O)[C@@H](C)[C@@H](O)C[C@@H]1CC[C@@](C)([C@H]2CC[C@@](C)([C@@H](C)O)O2)O1 [ionomycin] was tested, and the “distribution and intensity of fluorescence (nanocluster formation)” value was “a strong fluorescence dot appeared in cytoplasm due to a nanocluster formation”.
